ChEMBL document CHEMBL1138721, “Development of an efficient and selective radioligand for bradykinin B1 receptor occupancy studies” (Bioorg Med Chem Lett, 2004)

Key:
[1] = species on record: Homo sapiens; assay: Binding affinity to human plasma protein; assay type: cell-free
[2] = molecular target: T1, B1 bradykinin receptor (Homo sapiens, UniProt P46663); assay: Binding affinity to human Bradykinin receptor B1 over-expressed in transgenic rats was determined by ex vivo receptor occupancy assay
T1 sequence (P46663 whole entry): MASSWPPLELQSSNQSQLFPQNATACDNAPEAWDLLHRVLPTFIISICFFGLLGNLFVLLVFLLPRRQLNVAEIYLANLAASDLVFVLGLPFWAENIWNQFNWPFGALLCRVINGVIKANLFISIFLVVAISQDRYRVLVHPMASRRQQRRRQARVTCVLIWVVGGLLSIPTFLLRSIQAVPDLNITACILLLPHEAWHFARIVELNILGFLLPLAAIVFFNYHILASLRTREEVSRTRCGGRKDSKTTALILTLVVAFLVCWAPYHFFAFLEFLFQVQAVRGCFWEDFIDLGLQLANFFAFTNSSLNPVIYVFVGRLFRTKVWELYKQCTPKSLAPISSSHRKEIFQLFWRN

[3] = Partition coefficient (logP); assay type: physicochemical; conditions: octanol/water
[4] = molecular target: T2, B2 bradykinin receptor (Homo sapiens, UniProt P30411); assay: Binding affinity to human Bradykinin receptor B2 over-expressed in transgenic rats was determined by ex vivo receptor occupancy assay
T2 sequence (P30411 whole entry): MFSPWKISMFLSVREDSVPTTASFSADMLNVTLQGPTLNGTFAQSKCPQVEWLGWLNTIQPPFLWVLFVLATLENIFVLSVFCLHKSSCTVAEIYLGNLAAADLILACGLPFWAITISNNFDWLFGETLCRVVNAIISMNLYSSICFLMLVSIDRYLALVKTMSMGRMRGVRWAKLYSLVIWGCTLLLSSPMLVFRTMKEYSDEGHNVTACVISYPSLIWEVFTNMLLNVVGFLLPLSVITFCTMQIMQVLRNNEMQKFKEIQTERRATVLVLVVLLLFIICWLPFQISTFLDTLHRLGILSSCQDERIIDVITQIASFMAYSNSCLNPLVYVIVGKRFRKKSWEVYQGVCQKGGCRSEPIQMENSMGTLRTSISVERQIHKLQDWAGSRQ

[5] = molecular target: T1, B1 bradykinin receptor; assay: Binding affinity (radioligand) to human Bradykinin receptor B1 over-expressed in transgenic rats was determined by ex vivo receptor occupancy assay; value ranges from 0.1-0.2 nM
[6] = species on record: Homo sapiens; assay: Binding affinity of the [35S]- radiolabeled compound to human plasma protein; assay type: cell-free
[7] = molecular target: T1, B1 bradykinin receptor; assay: Binding affinity of the [35S]- radiolabeled compound to human Bradykinin receptor B1 over-expressed in transgenic rats was determined by ex vivo receptor occupancy assay
[8] = molecular target: T1, B1 bradykinin receptor; assay: Equilibrium dissociation constant of the [35S]- radiolabeled compound against human Bradykinin receptor B1 expressed in CHO membranes was determined; assay type: cell membranes
[9] = molecular target: T3, B1 bradykinin receptor (Canis lupus familiaris, UniProt Q9BDQ5); assay: Binding affinity of the [35S]- radiolabeled compound to dog Bradykinin receptor B1
T3 sequence (Q9BDQ5 whole entry): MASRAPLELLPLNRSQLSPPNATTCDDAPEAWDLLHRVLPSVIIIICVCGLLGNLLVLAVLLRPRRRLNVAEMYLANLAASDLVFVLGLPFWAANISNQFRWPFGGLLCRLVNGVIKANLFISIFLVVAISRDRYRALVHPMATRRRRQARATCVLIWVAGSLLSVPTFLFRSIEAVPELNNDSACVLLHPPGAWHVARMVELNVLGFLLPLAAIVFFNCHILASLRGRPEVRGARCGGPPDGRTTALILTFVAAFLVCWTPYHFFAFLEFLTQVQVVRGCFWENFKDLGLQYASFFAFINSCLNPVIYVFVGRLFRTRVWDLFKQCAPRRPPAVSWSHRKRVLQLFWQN

[10] = molecular target: T4, B1 bradykinin receptor (Rattus norvegicus, UniProt P97583); assay: Binding affinity of the [35S]- radiolabeled compound to rat Bradykinin receptor B1
T4 sequence (P97583 whole entry): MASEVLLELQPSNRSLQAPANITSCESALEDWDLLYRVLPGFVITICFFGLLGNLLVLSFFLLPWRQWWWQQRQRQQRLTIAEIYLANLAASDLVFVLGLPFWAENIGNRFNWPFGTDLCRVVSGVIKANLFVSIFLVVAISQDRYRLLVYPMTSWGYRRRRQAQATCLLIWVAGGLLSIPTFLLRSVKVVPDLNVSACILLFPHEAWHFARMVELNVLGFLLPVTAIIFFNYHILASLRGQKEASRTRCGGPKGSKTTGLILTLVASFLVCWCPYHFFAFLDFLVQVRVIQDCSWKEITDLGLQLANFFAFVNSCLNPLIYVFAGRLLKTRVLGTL

[11] = molecular target: T5, B1 bradykinin receptor (Homo sapiens) (UniProt P46663); assay: Maximum specific binding of the [35S]- radiolabeled compound to human Bradykinin receptor B1 expressed in CHO membranes was determined; assay type: cell membranes
T5 sequence (whole entry): T1 sequence (P46663 whole entry)

[12] = Half-life of the [35S]- radiolabeled compound; assay type: ADME
[13] = molecular target: T2, B2 bradykinin receptor; assay: Binding affinity of the [35S]- radiolabeled compound to human Bradykinin receptor B2 over-expressed in transgenic rats was determined by ex vivo receptor occupancy assay
[14] = molecular target: T6, B1 bradykinin receptor (Oryctolagus cuniculus, UniProt P48748); assay: Binding affinity of the [35S]- radiolabeled compound to rabbit Bradykinin receptor B1
T6 sequence (P48748 whole entry): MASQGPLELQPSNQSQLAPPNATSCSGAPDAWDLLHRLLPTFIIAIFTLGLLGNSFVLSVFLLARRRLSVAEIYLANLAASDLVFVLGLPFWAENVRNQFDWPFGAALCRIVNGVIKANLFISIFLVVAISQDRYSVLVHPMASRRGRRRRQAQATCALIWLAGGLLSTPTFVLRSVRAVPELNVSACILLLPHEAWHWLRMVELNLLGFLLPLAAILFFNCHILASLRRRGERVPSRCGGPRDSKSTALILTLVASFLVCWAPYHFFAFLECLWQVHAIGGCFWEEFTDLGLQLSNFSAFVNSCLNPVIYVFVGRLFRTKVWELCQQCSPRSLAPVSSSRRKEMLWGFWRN

[15] = molecular target: T1, B1 bradykinin receptor; assay: Antagonist activity against human Bradykinin receptor B1 was determined in a fluorescence imaging plate reader assay; assay type: functional

Structure (SMILES) | PPB [1] [%] | Ki [2] [nM] | logP [3] | Ki [4] [nM] | other results
CN1CCN=C1c1ccc(CCNC(=O)C[C@@H]2C(=O)Nc3ccc(Cl)cc3N2S(=O)(=O)c2ccc3ccccc3c2)cc1 | 91.7 | 0.02 | 0.53 | > 10000 | –
O=C(C[C@@H]1C(=O)Nc2ccccc2N1S(=O)(=O)c1ccc(Cl)c(Cl)c1)NCCc1ccc(-n2cnnc2)cc1 | 82.5 | 3.73 | 2.35 | > 10000 | –
O=C(C[C@@H]1C(=O)Nc2ccccc2N1S(=O)(=O)c1ccc(Cl)c(Cl)c1)NCCc1ccc(C2=NCCN2)cc1 | 36 | 0.03 | 0.48 | > 10000 | –
[3H][C@@]1(C(=O)NCC(=O)N[C@@H](Cc2ccccc2)C(=O)N[C@@H](CO)C(=O)N2CCC[C@H]2C(=O)N[C@@H](CC(C)C)C(=O)O)CCCN1C(=O)[C@]1([3H])CCCN1C(=O)[C@H](CCCN=C(N)N)NC(=O)[C@@H](N)CCCCN | – | – | – | – | Ki [5]: < 0.2 nM
O=C(C[C@@H]1C(=O)Nc2ccc(Cl)cc2N1S(=O)(=O)c1ccc2ccccc2c1)NCCc1ccc(C2=NCCN2)cc1 | 93.6 | 0.01 | 1 | > 10000 | –
O=C(C[C@@H]1C(=O)Nc2ccccc2N1S(=O)(=O)c1ccc2ccccc2c1)NCCc1ccc(-c2ncc[nH]2)cc1 | 98.5 | 0.07 | 3.32 | > 10000 | –
O=C(C[C@@H]1C(=O)Nc2ccccc2N1S(=O)(=O)c1ccc(Cl)c(Cl)c1)NCCc1ccc(-n2ccnc2)cc1 | – | 1.09 | 3.35 | > 10000 | –
O=C(C[C@@H]1C(=O)Nc2ccccc2N1S(=O)(=O)c1ccc2ccccc2c1)NCCc1ccc(C2=NCCN2)cc1 | – | – | 0.25 | – | PPB [6]: 79.4%; Ki [7]: 0.02 nM; Kd [8]: 0.015 nM; Ki [9]: 0.5 nM; Ki [10]: 34 nM; Bmax (fM mg-1 protein) [11]: 480; half-life [12]: ~3.33 h; Ki [13]: > 10000 nM; Ki [14]: 0.05 nM; IC50 [15]: 0.04 nM
O=C(C[C@@H]1C(=O)Nc2ccc(Cl)cc2N1S(=O)(=O)c1ccc2ccccc2c1)NCCc1ccc(-c2ncc[nH]2)cc1 | – | 0.07 | 3.41 | > 10000 | –
